{"source": "patent US7404975B2", "about": "“Moringa crude extracts and their derived fractions with antifungal activities” (Academia Sinica, priority 2006, dated 2008)", "test_system": "Epidermophyton floccosum", "assay": "Broth dilution anti-fungal susceptibility assay (NCCLS M38-A), MIC", "type": "cell-based", "protocol": "M. oleifera was grown and collected from Taichung, Taiwan. The seeds were de-hulled and the seed kernels dried at 100° C. for 24 h before extraction. The leaves were freshly harvested from M. oleifera trees of at least one-year-old and immediately air-dried. All materials were lyophilized and powdered before experiments. The dermatophytes used in this study were obtained from the Food Industry Research and Development Institute (FIRDI) in Taiwan. Trichophyton rubrum (BCRC 32805), Trichophyton mentagrophytes (BCRC 32066), Epidermophyton floccosum (BCRC 30531) and Microsporum canis (BCRC 30541) were maintained by monthly sub-culturing on Sabouraud dextrose agar (SDA) at 28° C.\nThe anti-fungal assays followed the protocol (document M38-A) of The National Committee for Clinical Laboratory Standards (NCCLS) in the USA. The protocol is a standard method for broth dilution anti-fungal susceptibility testing of filamentous fungi. 100× of the drug (such as ketoconozole; the MICs of this agent tested on the fungi described above were from 0.125 μg/ml to 12.5 μg/ml ) used for the control experiment. […] The minimal inhibitory concentration (MIC), which is defined as the lowest concentration of an anti-microbial agent preventing the visible growth of a microorganism in an agar or broth dilution susceptibility test (numerical score 0), was determined for each test sample."}
{"smiles": "CC(=O)N1CCN(c2ccc(OCC3COC(Cn4ccnc4)(c4ccc(Cl)cc4Cl)O3)cc2)CC1", "note": "(stereo not shown) [ketoconozole, ketoconazole]", "values": [{"measurement": "MIC (text comparison ketoconozole vs EOF)", "result": "0.125 ˜ig/ml"}]}
